{"source": "patent US8101783B1", "about": "“Titanium-maltol compound and method of synthesizing the same” (priority 2007, dated 2012)", "key": {"[1]": {"experiment": "Stability of the crystals removed from the mother liquor", "format": "physicochemical", "settings": "when removed from the mother liquor"}, "[2]": {"experiment": "Solubility of the Ti(IV)-maltol complexes in water and in CH2Cl2", "format": "physicochemical", "description": "Alternatively, more than two (and preferably three) equivalents of maltol could be used to provide an excess and ensure completion of the reaction.\nHowever, at pH of 8.4 the complex becomes soluble in water but promotes tetramerization of the [Ti(maltolato)2(OH)2] species. In fact, this can be monitored by NMR spectroscopy. A pure sample of cis-[Ti(maltolato)2(OH)2] was dissolved in D2O at pH of 8.4. […] These two species belong most likely to cis-[Ti(maltolato)2(OH)2] and [Ti4(maltolato)8(μ-O)4]. After 24 hours the tetrameric species continues increasing while the monomeric species decreases. Upon standing for two weeks, at pH of 8.4, this solution yields orange crystals suitable for X-ray diffraction. Evidently, Ti(maltolato)2(OH)2 further reacts to form a tetranuclear titanium complex, which crystallizes as a hydrate, [Ti4(maltolato)8(μ-O)4].18H2O, Single crystal X-ray structure determination was pursued on this high pH species, which solid state structure is illustrated in FIG. 2. The crystal data and structure refinement details as well as the bonding parameters are summarized below in Table 1 and Table 2, respectively.\nElectrochemical behavior of Ti(maltolato)2(OH)2 was investigated using cyclic voltammetry (cv). Ti(maltolato)2(OH)2 in CH2Cl2/[NBu4] […] If this potential is compared with previously reported Ti(IV)-maltol and Ti(IV)-guaiacol complexes, it resembles to reduction potentials of monomeric species such as Ti(maltolato)2(OEt)2 (−1.0 V) and Ti(maltolato)2(Cl)2 (−1.55 V) and not to the tetrameric species [Ti4(guaiacolato)8(μ-O)4] (−1.94 V)."}, "[3]": {"settings": "physiological pH; cited from earlier work"}}, "data": [{"molecule": "Cc1occc(=O)c1[O-].Cc1occc(=O)c1[O-].Cc1occc(=O)c1[O-].Cc1occc(=O)c1[O-].Cc1occc(=O)c1[O-].Cc1occc(=O)c1[O-].Cc1occc(=O)c1[O-].Cc1occc(=O)c1[O-].O.O.O.O.O.O.O.O.O.O.O.O.O.O.O.O.O.O.[O-2].[O-2].[O-2].[O-2].[Ti+4].[Ti+4].[Ti+4].[Ti+4]", "note": "[[Ti4(maltolato)8(μ-O)4].18H2O]", "values": [{"measurement": "stability of crystals", "setting": "[1]", "result": "unstable and undergoes dehydration"}]}, {"molecule": "Cc1occc(=O)c1[O-].Cc1occc(=O)c1[O-].Cc1occc(=O)c1[O-].Cc1occc(=O)c1[O-].Cc1occc(=O)c1[O-].Cc1occc(=O)c1[O-].Cc1occc(=O)c1[O-].Cc1occc(=O)c1[O-].[O-2].[O-2].[O-2].[O-2].[Ti+4].[Ti+4].[Ti+4].[Ti+4]", "note": "[[Ti4(maltolato)8(μ-O)4]]", "values": [{"measurement": "solubility in CH2Cl2", "setting": "[2]; CH2Cl2, cyclic voltammetry attempt", "result": "lack of solubility"}]}, {"molecule": "CC(=O)[CH-]C(=O)c1ccccc1.CC(=O)[CH-]C(=O)c1ccccc1.CC[O-].CC[O-].[Ti+4]", "note": "[budotitane]", "values": [{"measurement": "hydrolytic stability", "setting": "[3]", "result": "low hydrolytic stability"}]}, {"molecule": "dihydroxobis(maltolato)titanium(IV) [Ti(maltolato)2(OH)2]", "values": [{"measurement": "solubility in water", "setting": "[2]; low pH (5.4)", "result": "slightly water soluble"}, {"measurement": "solubility in water", "setting": "[2]; pH of 8.4, promotes tetramerization", "result": "soluble"}]}, {"molecule": "titanocene dichloride", "values": [{"measurement": "hydrolytic stability", "setting": "[3]", "result": "low hydrolytic stability"}]}]}
